{"source": "patent EP2331496B1", "about": "“USE OF AN N-ACYL AMINO ACID SELECTED FROM AMONG N-PALMITOYL ALANINE, N-PALMITOYL GLYCINE, AND N-PALMITOYL ISOLEUCINE AS A REGULATING ACTIVE AGENT OF THE GENETIC PROFILE OF SENESCENT REPLICATING FIBROBLASTS OF THE HUMAN SKIN DERMIS” (Societe D'Exploitation De Produits Pour Les Industries …, priority 2008, dated 2010)", "key": {"[1]": {"system": "gène codant la pleiotrophine (PTN)", "assay": "Q-PCR gene expression in replicative senescent human dermal fibroblasts: PTN", "assay_type": "cell-based, humains", "conditions": "aged fibroblasts from adult dermis (16 passages), cultured 96 h with the substance, compared with young cells (8 passages, 100 %)", "from_the_text": "(§1) Des fibroblastes humains normaux issus de derme adulte et vieillis de manière accélérée (16 passages en culture) ou non (8 passages en culture) ont été cultivés en présence ou non de chacun des quatre N-acyl amino acides suivants : N-palmitoyl glycine, N-palmitoyl alanine, N-palmitoyl isoleucine et N-cocoyl alanine pendant 96 heures. A la fin de l'expérience, les cellules ont été lavées et extraites pour l'analyse génomique. Cette dernière a été réalisée par Q-PCR (\"Quantitative Polymerase Chain Reaction\").\n(§2) Pour chacun des diagrammes de ces figures, les résultats sont exprimés en pourcentage de variation des niveaux relatifs d'expression génique par rapport aux cellules jeunes (100 %), les pourcentages en haut des histogrammes expriment les pourcentages de restauration et les abréviations indiquées sont conformes à la nomenclature officielle Genbank."}, "[2]": {"system": "gène codant la tenascine C (TNC)", "assay": "Q-PCR gene expression in replicative senescent human dermal fibroblasts: TNC", "assay_type": "cell-based, humains", "conditions": "aged fibroblasts from adult dermis (16 passages), cultured 96 h with the substance, compared with young cells (8 passages, 100 %)", "from_the_text": "as §1, §2"}, "[3]": {"system": "sujets caucasiens âgés de 45 ans à 76 ans et présentant des rides de vieillissement cutané", "assay": "In vivo anti-wrinkle efficacy, topical gel-cream on the eye contour (crow's feet)", "design": "species or system humain", "conditions": "1% gel-cream, topical twice daily on the face, crow's feet zone, 42 days, about 20 volunteers/group; results expressed relative to a commercial reference lipopeptide product", "from_the_text": "Les N-acyl amino acides testés ont été formulés en gel-crème à 1% dans le couple d'émulsionnants MONTANOV™ 202, MONTANOV™ 82, l'épaississant SEPIPLUS™ 400 ainsi que le MONTANOX™ 60D, afin d'effectuer des applications topiques biquotidiennes sur le visage de sujets caucasiens âgés de 45 ans à 76 ans et présentant des rides de vieillissement cutané (environ 20 volontaires/groupe). Un produit lipopeptidique commercial de référence a également été testé selon le même protocole expérimental.\nLa région anatomique choisie pour cette étude était la zone du contour de l'oeil (patte d'oie).\nLa durée du traitement a été de 42 jours.\nLes résultats ont été exprimés en termes de surface ridée totale et de nombre de rides par rapport à un produit lipopeptidique commercial de référence."}, "[4]": {"system": "gène codant la cytokine pro-inflammatoire IL-6", "assay": "Q-PCR gene expression in replicative senescent human dermal fibroblasts: IL-6", "assay_type": "cell-based, humains", "conditions": "aged fibroblasts from adult dermis (16 passages), cultured 96 h with the substance, compared with young cells (8 passages, 100 %)", "from_the_text": "as §1, §2"}, "[5]": {"system": "gène codant la métallo protéinase MMP-1", "assay": "Q-PCR gene expression in replicative senescent human dermal fibroblasts: MMP-1", "assay_type": "cell-based, humains", "conditions": "aged fibroblasts from adult dermis (16 passages), cultured 96 h with the substance, compared with young cells (8 passages, 100 %)", "from_the_text": "as §1, §2"}, "[6]": {"system": "gène codant la dermatopontine (DPT)", "assay": "Q-PCR gene expression in replicative senescent human dermal fibroblasts: DPT", "assay_type": "cell-based, humains", "conditions": "aged fibroblasts from adult dermis (16 passages), cultured 96 h with the substance, compared with young cells (8 passages, 100 %)", "from_the_text": "as §1, §2"}, "[7]": {"system": "gène codant la protéine de choc thermique (HSP 90A)", "assay": "Q-PCR gene expression in replicative senescent human dermal fibroblasts: HSP 90A", "assay_type": "cell-based, humains", "conditions": "aged fibroblasts from adult dermis (16 passages), cultured 96 h with the substance, compared with young cells (8 passages, 100 %)", "from_the_text": "as §1, §2"}, "[8]": {"system": "gène codant le nidogène (NID)", "assay": "Q-PCR gene expression in replicative senescent human dermal fibroblasts: NID", "assay_type": "cell-based, humains", "conditions": "aged fibroblasts from adult dermis (16 passages), cultured 96 h with the substance, compared with young cells (8 passages, 100 %)", "from_the_text": "as §1, §2"}, "[9]": {"system": "gène codant le collagène de type I (COL1A1)", "assay": "Q-PCR gene expression in replicative senescent human dermal fibroblasts: COL1A1", "assay_type": "cell-based, humains", "conditions": "aged fibroblasts from adult dermis (16 passages), cultured 96 h with the substance, compared with young cells (8 passages, 100 %)", "from_the_text": "as §1, §2"}, "[10]": {"system": "gène codant le biglycane (BGN)", "assay": "Q-PCR gene expression in replicative senescent human dermal fibroblasts: BGN", "assay_type": "cell-based, humains", "conditions": "aged fibroblasts from adult dermis (16 passages), cultured 96 h with the substance, compared with young cells (8 passages, 100 %)", "from_the_text": "as §1, §2"}, "[11]": {"system": "gène codant la Serpine 2B", "assay": "Q-PCR gene expression in replicative senescent human dermal fibroblasts: Serpine 2B", "assay_type": "cell-based, humains", "conditions": "aged fibroblasts from adult dermis (16 passages), cultured 96 h with the substance, compared with young cells (8 passages, 100 %)", "from_the_text": "as §1, §2"}, "[12]": {"system": "gène codant la Serpine 1H (HSP47)", "assay": "Q-PCR gene expression in replicative senescent human dermal fibroblasts: Serpine 1H (HSP47)", "assay_type": "cell-based, humains", "conditions": "aged fibroblasts from adult dermis (16 passages), cultured 96 h with the substance, compared with young cells (8 passages, 100 %)", "from_the_text": "as §1, §2"}, "[13]": {"system": "gène codant la vimentine", "assay": "Q-PCR gene expression in replicative senescent human dermal fibroblasts: vimentine", "assay_type": "cell-based, humains", "conditions": "aged fibroblasts from adult dermis (16 passages), cultured 96 h with the substance, compared with young cells (8 passages, 100 %)", "from_the_text": "as §1, §2"}}, "data": [{"compound": "CCCCCCCCCCCCCCCC(=O)NCC(=O)O", "note": "[N-palmitoyl glycine]", "values": [{"measurement": "niveau d'expression du gène codant la pleiotrophine (PTN)", "setting": "[1]", "value": "augmentation du niveau d'expression"}, {"measurement": "niveau d'expression du gène codant la tenascine C (TNC)", "setting": "[2]", "value": "augmentation du niveau d'expression"}, {"measurement": "diminution du nombre de rides", "setting": "[3]", "value": 35, "unit": "%"}, {"measurement": "niveau d'expression du gène codant la cytokine pro-inflammatoire IL-6", "setting": "[4]", "value": "diminution du niveau d'expression"}, {"measurement": "niveau d'expression du gène codant la métallo protéinase MMP-1", "setting": "[5]", "value": "diminution du niveau d'expression"}, {"measurement": "niveau d'expression du gène codant la dermatopontine (DPT)", "setting": "[6]", "value": "augmentation du niveau d'expression"}, {"measurement": "niveau d'expression du gène codant la protéine de choc thermique (HSP 90A)", "setting": "[7]", "value": "augmentation du niveau d'expression"}, {"measurement": "niveau d'expression du gène codant le nidogène (NID)", "setting": "[8]", "value": "augmentation du niveau d'expression"}]}, {"compound": "CCCCCCCCCCCCCCCC(=O)N[C@@H](C)C(=O)O", "note": "[N-palmitoyl alanine]", "values": [{"measurement": "niveau d'expression du gène codant le collagène de type I (COL1A1)", "setting": "[9]", "value": "augmentation du niveau d'expression"}, {"measurement": "diminution de la surface ridée totale", "setting": "[3]", "value": 15, "unit": "%"}, {"measurement": "niveau d'expression du gène codant la cytokine pro-inflammatoire IL-6", "setting": "[4]", "value": "diminution du niveau d'expression"}, {"measurement": "niveau d'expression du gène codant la métallo protéinase MMP-1", "setting": "[5]", "value": "diminution du niveau d'expression"}, {"measurement": "niveau d'expression du gène codant la dermatopontine (DPT)", "setting": "[6]", "value": "augmentation du niveau d'expression"}]}, {"compound": "CCCCCCCCCCCCCCCC(=O)N[C@H](C(=O)O)[C@@H](C)CC", "note": "[N-palmitoyl isoleucine]", "values": [{"measurement": "niveau d'expression du gène codant le biglycane (BGN)", "setting": "[10]", "value": "augmentation du niveau d'expression"}, {"measurement": "niveau d'expression du gène codant la pleiotrophine (PTN)", "setting": "[1]", "value": "augmentation du niveau d'expression"}, {"measurement": "niveau d'expression du gène codant le collagène de type I (COL1A1)", "setting": "[9]", "value": "augmentation du niveau d'expression"}, {"measurement": "niveau d'expression du gène codant la tenascine C (TNC)", "setting": "[2]", "value": "augmentation du niveau d'expression"}, {"measurement": "diminution du nombre de rides", "setting": "[3]", "value": 40, "unit": "%"}, {"measurement": "niveau d'expression du gène codant la Serpine 2B", "setting": "[11]", "value": "diminution du niveau d'expression"}, {"measurement": "niveau d'expression du gène codant la cytokine pro-inflammatoire IL-6", "setting": "[4]", "value": "diminution du niveau d'expression"}, {"measurement": "niveau d'expression du gène codant la dermatopontine (DPT)", "setting": "[6]", "value": "augmentation du niveau d'expression"}, {"measurement": "niveau d'expression du gène codant la Serpine 1H (HSP47)", "setting": "[12]", "value": "augmentation du niveau d'expression"}, {"measurement": "niveau d'expression du gène codant la protéine de choc thermique (HSP 90A)", "setting": "[7]", "value": "augmentation du niveau d'expression"}, {"measurement": "niveau d'expression du gène codant le nidogène (NID)", "setting": "[8]", "value": "augmentation du niveau d'expression"}, {"measurement": "niveau d'expression du gène codant la vimentine", "setting": "[13]", "value": "augmentation du niveau d'expression"}]}]}
